Measurements taken from patent US11999746B2, “Compounds” (GlaxoSmithKline Intellectual Property Development Limited, priority 2014, dated 2024).
Structures can show the parent of a compound that is named as a salt.

Tests used:
[1] = molecular target: T1, recombinant human Lp-PLA2 (Homo sapiens, UniProt Q13093); experiment: (1b) hrThioPAF assay, recombinant human Lp-PLA2; type: biochemical; conditions: Examples 266-412 were tested here, one experiment or average of multiple experiments, read-out: rhLp-PLA2 (pIC50) (converted)
T1 sequence (Q13093 22-441): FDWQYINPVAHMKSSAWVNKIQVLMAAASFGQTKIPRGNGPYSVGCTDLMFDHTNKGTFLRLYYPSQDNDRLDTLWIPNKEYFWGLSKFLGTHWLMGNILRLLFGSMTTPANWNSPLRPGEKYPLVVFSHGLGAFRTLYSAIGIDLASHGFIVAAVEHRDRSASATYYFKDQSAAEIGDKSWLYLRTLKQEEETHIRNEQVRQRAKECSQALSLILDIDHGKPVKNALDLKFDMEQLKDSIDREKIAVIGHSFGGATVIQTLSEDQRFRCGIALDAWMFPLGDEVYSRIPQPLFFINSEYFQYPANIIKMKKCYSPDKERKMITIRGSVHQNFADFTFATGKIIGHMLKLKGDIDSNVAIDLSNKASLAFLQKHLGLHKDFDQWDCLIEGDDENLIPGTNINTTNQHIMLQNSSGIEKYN
Summary of the method: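 Fluorogenic assay: 20 pM rhLp-PLA2 in 50 mM HEPES pH 7.4, 150 mM NaCl, 1 mM CHAPS with 1:3 serially diluted compounds; substrate mix of 40 μM 2-thio-PAF, 40 μM CPM, 400 μM NEM (pre-addition levels). 20 min at 25 °C in the dark; fluorescence ex 380/em 485 nm, pIC50 by curve fitting.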

Lp-PLA2 in human plasma = molecular target: T2, Lp-PLA2 in human plasma (Homo sapiens, UniProt Q13093); experiment: (3b) Lp-PLA2 human plasma alternative Thio-PAF assay; type: biochemical; conditions: (3b) alternative Thio-PAF assay, pooled human plasma; Examples of 266-412 were tested here; read-out: pIC50 in the Lp-PLA2 human plasma assay (converted)
T2 construct: from tissue; host or cells: pooled human plasma
T2 sequence (Q13093 22-441): T1 sequence (Q13093 22-441)
Summary of the method: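 Pooled human plasma was preincubated with compound for 15 min at RT. Substrate solution (2 mM 2-thio-PAF, 52 μM CPM, 2.5 mM NEM in 50 mM HEPES pH 7.4, 150 mM NaCl, 1 mM CHAPS; pre-addition concentrations) was added, and the reaction was quenched with 5% TFA after 3 min. Fluorescence was read at ex 380/em 485 nm and fitted to give pIC50.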

Structure (SMILES) | IC50 [1] [nM] | IC50 (Lp-PLA2 in human plasma) [nM]
CC(C)CN1CCN2c3cc(OCc4ccc(F)c(F)c4)nc(=O)n3CC2C1 (centres unmarked) [Example E305, 7-((3,4-Difluorobenzyl)oxy)-2-isobutyl-3,4,11,11a-tetrahydro-1H-pyrazino[1′,2′:3,4]imidazo[1,2-c]pyrimidin-9(2H)-one] | ≤ 10000 | ≤ 100
CCOC(=O)N1CCN2c3cc(OCc4ccc(F)c(F)c4)nc(=O)n3CC2C1 (centres unmarked) [Example E306, Ethyl 7-((3,4-difluorobenzyl)oxy)-9-oxo-3,4,11,11a-tetrahydro-1H-pyrazino[1′,2′:3,4]imidazo[1,2-c]pyrimidine-2(9H)-carboxylate] | ≤ 10000 | ≤ 100
CC(C)OC(=O)N1CCN2c3cc(OCc4ccc(F)c(F)c4)nc(=O)n3CC2C1 (centres unmarked) [Example E307, Isopropyl 7-((3,4-difluorobenzyl)oxy)-9-oxo-3,4,11,11a-tetrahydro-1H-pyrazino[1′,2′:3,4]imidazo[1,2-c]pyrimidine-2(9H)-carboxylate] | ≤ 10000 | ≤ 100
CNC1(C(=O)N2CCN3c4cc(OCc5ccc(F)c(F)c5)nc(=O)n4CC3C2)CC1 (centres unmarked) [Example E308, 7-((3,4-Difluorobenzyl)oxy)-2-(1-(methylamino)cyclopropanecarbonyl)-3,4,11,11a-tetrahydro-1H-pyrazino[1′,2′:3,4]imidazo[1,2-c]pyrimidin-9(2H)-one] | ≤ 10000 | ≤ 100
CC(C)C(=O)N1CCN2c3cc(OCc4ccc(F)c(F)c4)nc(=O)n3CC2C1 (centres unmarked) [Example E310, 7-((3,4-Difluorobenzyl)oxy)-2-isobutyryl-3,4,11,11a-tetrahydro-1Hpyrazino[1′,2′:3,4] imidazo[1,2-c]pyrimidin-9(2H)-one] | ≤ 100 | ≤ 100
CS(=O)(=O)N1CCN2c3cc(OCc4ccc(F)c(F)c4)nc(=O)n3CC2C1 (centres unmarked) [Example E313, 7-((3,4-Difluorobenzyl)oxy)-2-(methylsulfonyl)-3,4,11,11a-tetrahydro-1H-pyrazino[1′,2′:3,4]imidazo[1,2-c]pyrimidin-9(2H)-one] | ≤ 100 | ≤ 100
CC(=O)N1CCN2c3cc(OCc4ccc(F)c(F)c4)nc(=O)n3CC2C1 (centres unmarked) [Example E315, 2-Acetyl-7-((3,4-difluorobenzyl)oxy)-3,4,11,11a-tetrahydro-1H-pyrazino[1′,2′:3,4]imidazo[1,2-c]pyrimidin-9(2H)-one] | ≤ 100 | ≤ 100
CN1CCN2c3cc(OCc4ccc(F)c(F)c4)nc(=O)n3CC2C1 (centres unmarked) [Example E320, 7-((3,4-Difluorobenzyl)oxy)-2-methyl-3,4,11,11a-tetrahydro-1H-pyrazino[1,2′:3,4]imidazo[1,2-c]pyrimidin-9(2H)-one] | ≤ 10000 | ≤ 100
Cc1ccc(Oc2c(F)cc(COc3cc4n(c(=O)n3)CC3CN(C)CCN43)cc2F)cn1 (centres unmarked) [Example E321, 7-((3,5-Difluoro-4-((6-methylpyridin-3-yl)oxy)benzyl)oxy)-2-methyl-3,4,11,11a-tetrahydro-1Hpyrazino[1′,2′:3,4]imidazo[1,2-c]pyrimidin-9(2H)-one] | ≤ 10000 | ≤ 100
N#Cc1cc(COc2cc3n(c(=O)n2)CC2CN(CC(F)(F)F)CCN32)ccc1F (centres unmarked) [Example E322, 2-Fluoro-5-(((9-oxo-2-(2,2,2-trifluoroethyl)-2,3,4,9,11,11a-hexahydro-1H-pyrazino[1′,2′:3,4]imidazo[1,2-c]pyrimidin-7-yl)oxy)methyl)benzonitrile] | ≤ 10000 | ≤ 100
N#Cc1cc(COc2cc3n(c(=O)n2)CC2CN(C(=O)C(F)(F)F)CCN32)ccc1F (centres unmarked) [Example E323, 2-Fluoro-5-(((9-oxo-2-(2,2,2-trifluoroacetyl)-2,3,4,9,11,11a-hexahydro-1H-pyrazino[1′,2′:3,4]imidazo[1,2-c]pyrimidin-7-yl)oxy)methyl)benzonitrile] | ≤ 10000 | ≤ 100
N#Cc1cc(COc2cc3n(c(=O)n2)CC2CN(CC(=O)O)CCN32)ccc1F (centres unmarked) [Example E324, 2-(7-((3-Cyano-4-fluorobenzyl)oxy)-9-oxo-3,4,11,11a-tetrahydro-1H-pyrazino[1,2′:3,4]imidazo[1,2-c]pyrimidin-2(9H)-yl)acetic acid, trifluoroacetic acid Salt] | ≤ 10000 | ≤ 100
N#Cc1cc(COc2cc3n(c(=O)n2)CC2CN(CCC(=O)O)CCN32)ccc1F (centres unmarked) [Example E325, 3-(7-((3-Cyano-4-fluorobenzyl)oxy)-9-oxo-3,4,11,11a-tetrahydro-1H-pyrazino[1,2′:3,4]imidazo[1,2-c]pyrimidin-2(9H)-yl)propanoic acid] | ≤ 10000 | ≤ 100
N#Cc1cc(COc2cc3n(c(=O)n2)CC2COCCN32)ccc1F (centres unmarked) [Example E329, 2-Fluoro-5-(((9-oxo-1,3,4,9,11,11a-hexahydropyrimido[6′,1′:2,3]imidazo[5,1-c][1,4]oxazin-7-yl)oxy)methyl)benzonitrile] | ≤ 10000 | ≤ 100
O=C(C1CC1)N1CCN2c3cc(OCc4ccc(F)c(F)c4)nc(=O)n3CC2C1 (centres unmarked) [Example E330, 2-(Cyclopropanecarbonyl)-7-((3,4-difluorobenzyl)oxy)-3,4,11,11a-tetrahydro-1H-pyrazino[1′,2′:3,4]imidazo[1,2-c]pyrimidin-9(2H)-one] | ≤ 10000 | ≤ 100
O=c1nc(OCc2ccc(F)c(F)c2)cc2n1CC1CN(S(=O)(=O)C3CC3)CCN21 (centres unmarked) [Example E331, 2-(Cyclopropylsulfonyl)-7-((3,4-difluorobenzyl)oxy)-3,4,11,11a-tetrahydro-1H-pyrazino[1′,2′:3,4]imidazo[1,2-c]pyrimidin-9(2H)-one] | ≤ 10000 | ≤ 100
CC(C)(C)C(=O)N1CCN2c3cc(OCc4ccc(F)c(F)c4)nc(=O)n3CC2C1 (centres unmarked) [Example E332, 7-((3,4-Difluorobenzyl)oxy)-2-pivaloyl-3,4,11,11a-tetrahydro-1H-pyrazino[1′,2′:3,4]imidazo[1,2-c]pyrimidin-9(2H)-one] | ≤ 10000 | ≤ 100
NC1(C(=O)N2CCN3c4cc(OCc5ccc(F)c(F)c5)nc(=O)n4CC3C2)CC1 (centres unmarked) [Example E333, 2-(1-Aminocyclopropanecarbonyl)-7-((3,4-difluorobenzyl)oxy)-3,4,11,11a-tetrahydro-1H-pyrazino[1′,2′:3,4]imidazo[1,2-c]pyrimidin-9(2H)-one hydrochloride] | ≤ 10000 | ≤ 100
CC(C)(N)CC(=O)N1CCN2c3cc(OCc4ccc(F)c(F)c4)nc(=O)n3CC2C1 (centres unmarked) [Example E334, 2-(3-Amino-3-methylbutanoyl)-7-((3,4-difluorobenzyl)oxy)-3,4,11,11a-tetrahydro-1H-pyrazino[1′,2′:3,4]imidazo[1,2-c]pyrimidin-9(2H)-one] | ≤ 10000 | ≤ 100
CC(C)(N)C(=O)N1CCN2c3cc(OCc4ccc(F)c(F)c4)nc(=O)n3CC2C1 (centres unmarked) [Example E335, 2-(2-Amino-2-methylpropanoyl)-7-((3,4-difluorobenzyl)oxy)-3,4,11,11a-tetrahydro-1H-pyrazino[1,2′:3,4]imidazo[1,2-c]pyrimidin-9(2H)-one] | ≤ 10000 | ≤ 100
O=c1nc(OCc2ccc(F)c(F)c2)cc2n1CC1COCCN21 (centres unmarked) [Example E336, 7-((3,4-Difluorobenzyl)oxy)-3,4,11,11a-tetrahydropyrimido[6′,1′:2,3]imidazo[5,1-c][1,4] oxazin-9(1H)-one] | ≤ 10000 | ≤ 100
CN(C)CCC(=O)N1CCN2c3cc(OCc4ccc(F)c(F)c4)nc(=O)n3CC2C1 (centres unmarked) [Example E337, 7-((3,4-Difluorobenzyl)oxy)-2-(3-(dimethylamino)propanoyl)-3,4,11,11a-tetrahydro-1H-pyrazino[1,2′:3,4]imidazo[1,2-c]pyrimidin-9(2H)-one] | ≤ 10000 | ≤ 100
O=c1nc(OCc2ccc(F)c(F)c2)cc2n1CC1CN(CC(F)(F)F)CCN21 (centres unmarked) [Example E338, 7-((3,4-Difluorobenzyl)oxy)-2-(2,2,2-trifluoroethyl)-3,4,11,11a-tetrahydro-1H pyrazino[1′,2′:3,4]imidazo[1,2-c]pyrimidin-9(2H)-one trifluoroacetate] | 10 | ≤ 100
O=C([C@@H]1CCN1)N1CCN2c3cc(OCc4ccc(F)c(F)c4)nc(=O)n3CC2C1 (stereo partly drawn) [Example E339, 2-((S)-azetidine-2-carbonyl)-7-((3,4-difluorobenzyl)oxy)-3,4,11,11a-tetrahydro-1H-pyrazino[1′,2′:3,4]imidazo[1,2-c]pyrimidin-9(2H)-one] | ≤ 10000 | ≤ 100
O=C([C@@H]1CCCN1)N1CCN2c3cc(OCc4ccc(F)c(F)c4)nc(=O)n3CC2C1 (stereo partly drawn) [Example E340, 7-((3,4-Difluorobenzyl)oxy)-2-((S)-pyrrolidine-2-carbonyl)-3,4,11,11a-tetrahydro-1H-pyrazino[1,2′:3,4]imidazo[1,2-c]pyrimidin-9(2H)-one] | ≤ 10000 | ≤ 100
